Reference: patent publication US9468641B2, “Anti-inflammatory pharmaceutical composition comprising benzopyranyl tetracycles” (SEOUL NATIONAL UNIVERSITY R&DB FOUNDATION, priority 2014, dated 2016)

Experiments:
BV-2 cells = test: Griess assay of LPS-induced nitrite release in BV-2 cells; type: cell-based; conditions: BV2 microglial cells, with or without LPS stimulation, FIG. 1
Experimental: (§1) Cells increase the secretion of nitrite when induced to be inflammatory, but decrease the secretion of nitrite in the presence of an anti-inflammatory agent. […] Cells were treated with the compounds in the absence or presence of 100 ng/mL LPS (lipopolysaccharide). After 24 hrs of incubation, the cell culture media were reacted with Griess reagent (0.1% naphthylethylenediamine dihydrochloride and 1% sulfanilamide in 2% phosphoric acid). Absorbance was measured at 550 nm using a microplate reader, and the level of nitrite was estimated by comparison with a sodium nitrite standard curve.

[1] = tested on: HAPI cells, Primary neuroblastoma, and RAW 264.7 cells; test: Griess assay of nitrite release in further cell lines; type: cell-based; conditions: LPS stimulation, FIG. 2
Experimental: as §1

Il6, Il1b, Nos2, and Tnf = test: RT-PCR of pro-inflammatory mediator expression; type: cell-based; conditions: FIG. 3
Experimental: For the analysis of gene expression, cells were incubated with ICM for 6 hrs in the presence of LPS (for control, cells were treated with DMSO in the absence of LPS). Total RNA was extracted from cells using TRIzol reagent. Reverse transcription was conducted using Superscript II (Invitrogen) and oligo (dT) primers. PCR amplification was conducted using a DNA Engine Tetrad Peltier Thermal Cycler (Bio-Rad) using specific primer sets (at an annealing temperature of 55-60° C. for 20-30 cycles). To analyze PCR products, each sample was electrophoresed on a 1% agarose gel. The Gapdh (Glyceraldehyde-3-phosphate dehydrogenase) gene was used as an internal control.

HMGB2 [2] = target: T1, HMGB2 (Mus musculus, UniProt P30681); test: Pull-down assay with immunoblotting for HMGB2; type: binding; conditions: ICM 20 μM as soluble competitor, ICM-BP 5 μM, FIG. 12
T1 construct: endogenous in cells
T1 sequence (P30681 1-210): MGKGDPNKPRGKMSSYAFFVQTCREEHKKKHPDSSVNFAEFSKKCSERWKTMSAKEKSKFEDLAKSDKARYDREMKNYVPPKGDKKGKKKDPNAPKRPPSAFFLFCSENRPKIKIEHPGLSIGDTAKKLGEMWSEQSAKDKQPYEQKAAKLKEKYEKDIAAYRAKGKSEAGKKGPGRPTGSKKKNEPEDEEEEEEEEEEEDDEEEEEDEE
Experimental: Cells were treated with the compounds (ICM-BP alone or ICM-BP/ICM in combination) for 30 min and then with LPS for 2 hrs. Afterwards, the cells were irradiated with 365-nm UV light for 30 min, washed with PBS and stored at −78° C. They were lysed in RIPA buffer containing a protease inhibitor cocktail, and the protein concentration was adjusted to approximately 1 mg/ml. The proteome was labeled with Cy5-azide (40 μM), TBTA (100 μM), CuSO4 (1 mM), TCEP (1 mM) and t-BuOH (5%) for 1 hrs. The mixture was treated with acetone at −20° C. for […] to precipitate proteins. After centrifugation at 4° C. and 14,000 rpm for […], the pellet was washed twice with cold acetone. For 1-D gel analysis, the pellet was dissolved in Laemmli sample buffer and analyzed by electrophoresis. For 2-D gel analysis, the pellet was dissolved in rehydration buffer. The proteome labeled with ICM-BP (test group) and the control (labeled with ICM-BP/ICM) were mixed (1:1 ratio). The mixed proteomes were analyzed by 2-D gel electrophoresis. In-gel fluorescence was scanned with a Typhoon Trio (GE Healthcare).
Cell lysates were prepared according to the same protocol used for the in-gel analysis (lyzed in RIPA buffer containing a protease inhibitor cocktail). […] Samples were boiled with Laemmli sample buffer, and analyzed by electrophoresis and immunoblotting for HMGB2.

HMGB2 [3] = target: T1, HMGB2; test: Griess assay in BV-2 cells with siRNA-mediated HMGB2 knockdown; type: cell-based; conditions: normalized to DMSO treatment, FIG. 16
Experimental: as §1
The siRNA transfection of BV-2 microglial cells was performed using Lipofectamine™ 2000 (Invitrogen). Forty-eight hours after transfection, the cells were used for further experiments.

CC1(C)Oc2cc(O)ccc2C2C1=CCn1c(=O)n(-c3ccccc3)c(=O)n12 (centres unmarked) [ICM]
LPS-induced nitrite release (BV-2 cells): efficiently blocked LPS-induced nitrite release from BV2 microglial cells in a dose-dependent manner | nitrite release [1]: inhibit nitrite release in a broad range of cell lines | LPS-induced expression of pro-inflammatory genes (Il6, Il1b, Nos2, and Tnf): suppressed the LPS-induced expression of pro-inflammatory genes in a dose-dependent manner | competition of ICM-BP binding to HMGB2 (HMGB2 [2]): markedly lowered the level of binding for HMGB2 | anti-inflammatory effect on LPS-induced nitrite release under HMGB2 knockdown (HMGB2 [3]): anti-inflammatory effect of ICM was decreased by HMGB2 knockdown
